Reference: publication PMC8160793, “Potent Antimicrobial and Antibiofilm Activities of Feleucin-K3 Analogs Modified by α-(4-Pentenyl)-Ala against Multidrug-Resistant Bacteria” (Biomolecules, 2021)
Values after ≈ are worked out from the molar mass of the structure shown. Square brackets hold non-standard residues; d marks the D form. Peptide text beside a SMILES is read from it. ξ: configuration not given here. ξαMeGly(pent-4-enyl) = C=CCCCC(C)(N)C(=O)O

Tests used:
mouse RBCs = assay: Hemolytic activity; assay type: cell-based; details: equal volume of 8% RBC suspension, 1 h, OD 490 nm, Triton X-100 positive control; for hemolysis rate at 128 µg/mL: peptide 128 µg/mL (maximum concentration)
Protocol: Mouse red blood cells (RBCs) were collected using the eyeball removal method to investigate the hemolytic activity of the Feleucin-K3 analogs. Then, these analogs were incubated with the same volume of 8% RBC suspension for 1 h. After centrifugation for 10 min, 100 μL of supernatant was withdrawn, and the optical density at 490 nm was detected. The hemolysis rate of the cells treated with 0.1% Triton X-100 (Solarbio, Beijing, China) was used as a positive control, and PBS was used as a negative control.

E. coli ATCC 25922 [1] = assay type: cell-based; details: ATCC 25922, 24 h
Protocol: (§1) The antibiofilm activity of the peptides was determined according to the previously described methods. Strains (final concentration of 5 × 10^5 CFU/mL) and peptides (4–128 μg/mL) were incubated for 24 h at 37 °C. Biofilm cells were cleaned with 0.01-M PBS and fixed with methanol. Crystal violet (0.1%, HopeBiol, Qingdao, China) was used to stain the biofilm cells for 10 min. After washing with water, 95% ethanol was finally added, and the optical density at 595 nm was measured with a microplate reader (Flex Station 3; Laguna Hills, CA, USA).

E. coli ATCC 25922 [2] = assay type: cell-based; details: ATCC 25922, 18 h
Method in brief: (§2)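 Suspensions of sensitive and resistant strains, adjusted to 1 × 10^6 CFU/mL, were exposed to peptides at 8–128 μg/mL for 18 h at 37 °C by broth microdilution. The MIC was the minimum concentration with no obvious growth.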

P. aeruginosa ATCC 27853 = assay type: cell-based, Pseudomonas aeruginosa; details: ATCC 27853, 18 h
Method in brief: as §2

MRSA 48 = assay type: cell-based, Staphylococcus aureus; details: 48, 18 h
Method in brief: as §2

MRSA 113 = assay type: cell-based, Staphylococcus aureus; details: 113, 18 h
Method in brief: as §2

S. aureus ATCC 25923 = assay type: cell-based, Staphylococcus aureus; details: ATCC 25923, 24 h
Protocol: as §1

MRSA ATCC 33591 = assay type: cell-based, Staphylococcus aureus; details: ATCC 33591, 24 h
Protocol: as §1

| SMILES | hemolysis rate at 64 µg/mL (mouse RBCs; peptide 64 µg/mL) [%] | hemolysis rate at 128 µg/mL (mouse RBCs) | MBIC50, E. coli ATCC 25922 (E. coli ATCC 25922 [1]) [µg/mL] | MBIC90, E. coli ATCC 25922 (E. coli ATCC 25922 [1]) [µg/mL] | MIC, E. coli ATCC 25922 (E. coli ATCC 25922 [2]) [µg/mL] | MIC, P. aeruginosa ATCC 27853 (P. aeruginosa ATCC 27853) [µg/mL] | MIC, MRSA 48 (MRSA 48) [µg/mL] | MIC, MRSA 113 (MRSA 113) [µg/mL] | MBIC50, S. aureus ATCC 25923 (S. aureus ATCC 25923) [µg/mL] | MBIC90, S. aureus ATCC 25923 (S. aureus ATCC 25923) [µg/mL] | MBIC50, MRSA ATCC 33591 (MRSA ATCC 33591) [µg/mL] | MBIC90, MRSA ATCC 33591 (MRSA ATCC 33591) [µg/mL] |
| --- | --- | --- | --- | --- | --- | --- | --- | --- | --- | --- | --- | --- |
| C=CCCCC(C)(N)C(=O)N[C@@H](CC(C)C)C(=O)N[C@@H](CCCCN)C(=O)N[C@@H](CC(C)C)C(=O)N[C@@H](CC(C)C)C(=O)N[C@@H](CCCCN)C(=O)N[C@@H](CCCCN)C(=O)N[C@@H](CC(C)C)C(=O)N[C@@H](CC(C)C)C(N)=O (some centres unmarked) [Feleucin-K65] (H-[ξαMeGly(pent-4-enyl)]LKLLKKLL-NH2) | 9.08 | 31.6% | 16 | 32 | 8 (≈ 7.23 µM) | 8 (≈ 7.23 µM) | 4 (≈ 3.61 µM) | 8 (≈ 7.23 µM) | 8 | 16 | 8 | 8 |
| C=CCCCC(C)(NC(=O)[C@H](CC(C)C)NC(=O)[C@H](CCCCN)NC(=O)[C@H](CCCCN)NC(=O)[C@H](CC(C)C)NC(=O)[C@H](CC(C)C)NC(=O)[C@H](CCCCN)NC(=O)[C@H](CC(C)C)NC(=O)[C@@H](N)Cc1ccccc1)C(N)=O (some centres unmarked) [Feleucin-K70] (H-FLKLLKKL[ξαMeGly(pent-4-enyl)]-NH2) | – | less than 1% | 8 | 32 | 8 (≈ 7.01 µM) | 8 (≈ 7.01 µM) | 8 (≈ 7.01 µM) | 8 (≈ 7.01 µM) | 4 | 8 | 4 | 8 |
